Several values for one entry are separate records, joined by “and”; a condition that tells them apart may be missing. Equal entries are not always repeated.
System: ECHCG
Assay: In-water applied weed control, transplanted paddy rice, greenhouse (Example II);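 for Visual Weed Control (%) - 20 DAA ECHCG Obs: visual score 0 no injury to 100 complete kill versus untreated plants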
Assay type: in vivo, Echinochloa crusgalli (L.) Beauv.
Method: Evaluation of in-Water Applied Herbicidal Mixtures for Weed Control in Transplanted Paddy Rice
Weed seeds or nutlets of the desired test plant species were planted in puddled soil (mud) prepared by mixing a shredded, non-sterilized mineral soil (50.5 percent silt, 25.5 percent clay, and 24 percent sand, with a pH of about 7.6 and an organic matter content of about 2.9 percent) and water at a 1:1 volumetric ratio. The prepared mud was dispensed in 365 mL aliquots into 16-ounce (oz.) non-perforated plastic pots with a surface area of 86.59 square centimeters (cm^2) leaving a headspace of 3 centimeters (cm) in each pot. Mud was allowed to dry overnight prior to planting or transplanting. Rice seeds were planted in Sun Gro MetroMix® 306 planting mixture, which typically has a pH of 6.0 to 6.8 and an organic matter content of about 30 percent, in plastic plug trays. Seedlings at the second or third leaf stage of growth were transplanted into 840 mL of mud contained in 32-oz. non-perforated plastic pots with a surface area of 86.59 cm^2 4 days prior to herbicide application. The paddy was created by filling the headspace of the pots with 2.5 to 3 cm of water. When required to ensure good germination and healthy plants, a fungicide treatment and/or other chemical or physical treatment was applied. The plants were grown for 4-22 days in a greenhouse with an approximate 14 h photoperiod which was maintained at about 29′C during the day and 26° C. during the night. Nutrients were added as Osmocote® (19:6:12, N:P:K+ minor nutrients) at 2 g per 16-oz. pot and 4 g per 32-oz. pot. Water was added on a regular basis to maintain the paddy flood, and supplemental lighting was provided with overhead metal halide 1000-Watt lamps as necessary. The plants were employed for testing when they reached the first through fourth true leaf stage.
Treatments consisted of the acid or esters of 4-amino-3-chloro-5-fluoro-6-(4-chloro-2-fluoro-3-methoxy-phenyl)pyridine-2-carboxylic acid (compound A) each formulated as an SC (suspension concentrate) and various herbicidal components alone and in combination. Forms of compound A were applied on an acid equivalent basis.
Other herbicidal components were applied on an active ingredient basis and included 4-hydroxyphenyl pyruvate dioxygenase (HPPD)-inhibiting herbicides mesotrione formulated as Callisto®, sulcotrione formulated as Mikado®, pyrazolynate formulated as Sunbird® 10% GR, and benzobicyclon formulated as Benzobicyclon 3.5% or technical material.
Treatment requirements for each compound or herbicidal component were calculated based upon the rates being tested, the concentration of active ingredient or acid equivalent in the formulation, an application volume of 2 mL per component per pot, and an application area of 86.59 cm^2 per pot.
For formulated compounds, a measured amount was placed in an individual 100 or 200 mL glass vial and was dissolved in a volume of 1.25% (v/v) Agri-Dex® crop oil concentrate to obtain application solutions.
For technical grade compounds, a weighed amount was placed in an individual 100 to 200 mL glass vial and was dissolved in a volume of acetone to obtain concentrated stock solutions. […] The concentrated stock solutions obtained were diluted with an equivalent volume of an aqueous mixture containing 2.5% (v/v) crop oil concentrate so that the final application solutions contained 1.25% (v/v) crop oil concentrate.
Applications were made by injecting with a pipetter appropriate amounts of the application solutions, individually and sequentially, into the aqueous layer of the paddy. Control plants were treated in the same manner with the solvent blank. Applications were made so that all treated plant material received the same concentrations of acetone and crop oil concentrate.
The treated plants and control plants were placed in a greenhouse as described above and water was added as needed to maintain a paddy flood. […]

| Structure (SMILES) | Visual Weed Control (%) - 21 DAA ECHCG Obs (8.75 gae/ha) | Visual Weed Control (%) - 20 DAA ECHCG Obs (17.5 gae/ha) | Visual Weed Control (%) - 21 DAA ECHCG Obs (17.5 gae/ha) | Visual Weed Control (%) - 20 DAA ECHCG Obs (35 gae/ha) | Visual Weed Control (%) - 22 DAA ECHCG Obs (8.75 gae/ha) | Visual Weed Control (%) - 22 DAA ECHCG Obs (17.5 gae/ha) |
| --- | --- | --- | --- | --- | --- | --- |
| COc1c(Cl)ccc(-c2nc(C(=O)O)c(Cl)c(N)c2F)c1F [Compound A Acid, 4-amino-3-chloro-6-(4-chloro-2-fluoro-3-methoxyphenyl)-5-fluoropyridine-2-carboxylic acid] | 20% | 35% and 30% | 30% | 55% | – | – |
| COc1c(Cl)ccc(-c2nc(C(=O)OCc3ccccc3)c(Cl)c(N)c2F)c1F [Compound A Benzyl Ester, benzyl ester of 4-amino-3-chloro-5-fluoro-6-(4-chloro-2-fluoro-3-methoxy-phenyl)pyridine-2-carboxylic acid] | – | – | – | – | 45% | 90% |

From patent US8841233B2, “Herbicidal compositions comprising 4-amino-3-chloro-5-fluoro-6-(4-chloro-2-fluoro-3-methoxyphenyl) pyridine-2-carboxylic acid or a derivative thereof and 4-hydroxyphenyl-pyruvate dioxygenase (HPPD) inhibitors” (Dow Agrosciences LLC, priority 2012, dated 2014)
